Tested on: primary osteoblasts
Assay: Percentage of carboxylated OCN (Gla-OCN) over total OCN by ELISA in osteoblast secretion medium
Type: cell-based, mouse
Description: Primary osteoblasts were transfected using jetPRIME Reagent (Polypus transfection). After an overnight incubation, media were changed to secretion media (FBS-free αMEM plus 2 mM L-glutamine, PS). After 24 hr of secretion, media were collected, and cells were lysed in protein lysis buffer (20 mM Tris-HC pH 7.4, 150 mM NaCl, 1 mM EDTA, 1 mM EGTA, 1% Triton, 1 mM PMSF, and 1 × protease inhibitor cocktail) and analyzed by western blotting. In some experiments, osteoblasts were treated with the γ-carboxylation inhibitor warfarin (50 μM; Santa Cruz Biotechnology), the N-acetylgalactosaminyltransferase inhibitor GalNAc-bn (2 mM, Sigma) or the proprotein convertase inhibitor Dec-RVKR-CMK (50 μM, Tocris), combined with 22 μM vitamin K1 (Sigma).

Compound | Gla OCN (% of total) (osteoblasts transfected with OCN-V5, inhibitor 2 mM, secretion medium, Figure 2C, replicate 1) | Gla OCN (% of total) (osteoblasts transfected with OCN-V5, inhibitor 2 mM, secretion medium, Figure 2C, replicate 2) | Gla OCN (% of total) (osteoblasts transfected with OCN-V5, inhibitor 50 μM, Figure 2D/2E, replicate 1) | Gla OCN (% of total) (osteoblasts transfected with OCN-V5, inhibitor 50 μM, Figure 2D/2E, replicate 2) | Gla OCN (% of total) (osteoblasts transfected with OCN-V5, inhibitor 50 μM, Figure 2D/2E, replicate 3) | Gla OCN (% of total) (osteoblasts transfected with OCN-V5, inhibitor 50 μM, secretion medium, Figure 2C, replicate 1) | Gla OCN (% of total) (osteoblasts transfected with OCN-V5, inhibitor 50 μM, secretion medium, Figure 2C, replicate 2) | Gla OCN (% of total) (osteoblasts transfected with OCNS8A-V5, inhibitor 50 μM, Figure 2D/2E, replicate 1) | Gla OCN (% of total) (osteoblasts transfected with OCNS8A-V5, inhibitor 50 μM, Figure 2D/2E, replicate 2) | Gla OCN (% of total) (osteoblasts transfected with OCNS8A-V5, inhibitor 50 μM, Figure 2D/2E, replicate 3)
CC(=O)N[C@H]1[C@@H](OCc2ccccc2)O[C@H](CO)[C@H](O)[C@@H]1O [GalNAc-bn, benzyl-N-acetyl-α-galactosaminide] | 43.4 % of total | 43.4 % of total |  |  |  |  |  |  |  | 
CC(=O)CC(c1ccccc1)c1c(O)c2ccccc2oc1=O (stereo not shown) [Warfarin] |  |  | 29.8 % of total | 27.1 % of total | 26.1 % of total | 14.3 % of total | 19.5 % of total | 26.8 % of total | 20.4 % of total | 29.1 % of total
